Patent US11267824B2, “Inhibitors of indoleamine 2,3-dioxygenase and/or tryptophan 2,3-dioxygenase” (IDORSIA PHARMACEUTICALS LTD, priority 2017, dated 2022)

How the values were obtained:
[1] = molecular target: Recombinant human TDO comprising amino acids 19-407 (Homo sapiens (Human), UniProt P48775); assay: TDO2 enzymatic assay (TDO inhibitory activity); assay type: biochemical; conditions: 15 nM enzyme, 200 μM L-tryptophan, pH7, 30 min pre-incubation, NFK quantified by LCMS; mean values if measured multiple times; read-out: hTDO activity (IC50 in nM)
Recombinant human TDO comprising amino acids 19-407, sequence (P48775 19-406 limits assumed): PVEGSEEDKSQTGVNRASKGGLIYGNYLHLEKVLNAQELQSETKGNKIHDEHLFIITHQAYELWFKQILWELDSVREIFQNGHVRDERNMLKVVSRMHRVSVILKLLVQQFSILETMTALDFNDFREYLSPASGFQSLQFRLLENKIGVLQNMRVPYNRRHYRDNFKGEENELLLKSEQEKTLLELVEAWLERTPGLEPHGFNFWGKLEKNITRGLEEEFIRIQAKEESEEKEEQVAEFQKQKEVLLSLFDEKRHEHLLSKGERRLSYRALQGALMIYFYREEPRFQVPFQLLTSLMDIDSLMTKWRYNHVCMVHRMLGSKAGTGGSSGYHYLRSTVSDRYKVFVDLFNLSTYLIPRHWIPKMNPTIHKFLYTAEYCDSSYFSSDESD
Experimental: 2) Testing Compounds for TDO Inhibitory Activity in a TDO2 Enzymatic Assay:
Recombinant human TDO comprising amino acids 19-407 with a N-terminal hexahistidine tag expressed in E. coli and purified to homogeneity is incubated at a final concentration of 15 nM in assay buffer consisting of 75 mM phosphate buffer at pH7 supplemented with 100 μM ascorbic acid, 50 U/ml Catalase, 0.01% BSA, and 0.01% Tween 20 (protocol modified from Seegers et al, JBS 2014). Example compounds are serially diluted in DMSO, further diluted in phosphate buffer, and added to the reaction mixture at final concentrations ranging from 10 μM to 0.5 nM. The final DMSO concentration is 0.6%. Following a pre-incubation of 30 minutes at RT, the reaction is started by the addition of L-tryptophan at a final concentration of 200 μM in assay buffer. After 30 minutes of incubation at RT, 3 μL of the reaction mixture are transferred to a 384 deep well plate containing 25 μL of deionized water. 100 μl of 200 nM L-Tryptophan-(indole-d5) in cold 100% methanol are added followed by a 10 minutes centrifugation at 4,000 rpm at 4° C. An additional 75 μL of deionized water are then added and followed by a 10 minutes centrifugation at 4,000 rpm at 4° C. The product of the reaction N′-Formylkynurenine (NFK) is quantified by LCMS and normalized to the L-Tryptophan-(indole-d5) signal. Samples with 0.6% DMSO (0% effect) and a TDO/IDO inhibitor (100% effect) are used as control samples to set the parameters for the non-linear regression necessary for the determination of the half-maximal inhibitory concentration (IC50) for each compound. For each compound concentration the percentage of activity compared to 0% and 100% effect is calculated as average±STDEV (each concentration measured in duplicate). IC50 values and curves are generated with XLfit software (IDBS) using Dose-Response One Site model 203 (four parameter logistic curve model). When compounds are measured multiple times, mean values are given.

[2] = molecular target: Recombinant full-length human IDO1 (Homo sapiens (Human), UniProt P14902); assay: IDO1 enzymatic assay (IDO inhibitory activity); assay type: biochemical; conditions: 2 nM enzyme, 5 μM L-tryptophan, pH6.5, 30 min pre-incubation, NFK quantified by LCMS; mean values if measured multiple times; read-out: hIDO activity (IC50 in nM)
Recombinant full-length human IDO1, sequence (P14902 whole entry): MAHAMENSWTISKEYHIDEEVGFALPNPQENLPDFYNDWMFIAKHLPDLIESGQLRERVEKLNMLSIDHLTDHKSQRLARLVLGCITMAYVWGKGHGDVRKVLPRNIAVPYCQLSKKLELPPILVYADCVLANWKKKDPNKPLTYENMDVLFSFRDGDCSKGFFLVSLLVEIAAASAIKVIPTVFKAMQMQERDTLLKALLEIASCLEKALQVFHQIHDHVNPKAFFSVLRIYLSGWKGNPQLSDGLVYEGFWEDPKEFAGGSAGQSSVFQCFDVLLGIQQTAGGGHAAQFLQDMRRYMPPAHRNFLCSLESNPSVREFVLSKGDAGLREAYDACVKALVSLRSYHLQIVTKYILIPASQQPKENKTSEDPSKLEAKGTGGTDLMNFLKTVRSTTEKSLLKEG
Experimental: 1) Testing Compounds for IDO Inhibitory Activity in an IDO1 Enzymatic Assay:
Recombinant full-length human IDO1 with a N-terminal hexahistidine tag expressed in E. coli and purified to homogeneity is incubated at a final concentration of 2 nM in assay buffer consisting of 37.5 mM phosphate buffer at pH6.5 supplemented with 10 mM sodium L-ascorbate, 0.45 μM methylene blue, 50 U/ml catalase, 0.01% BSA, and 0.01% Tween 20 (protocol modified from Seegers et al, JBS 2014). Example compounds are serially diluted in DMSO, further diluted in phosphate buffer, and added to the enzyme at final concentrations ranging from 10 μM to 0.5 nM. The final DMSO concentration is 0.6%. Following a pre-incubation of 30 minutes at RT, the reaction is started by the addition of L-tryptophan at a final concentration of 5 μM in assay buffer. After 30 minutes of incubation at RT, 3 μL of the reaction mixture are transferred to a 384 deep well plate containing 25 μL of deionized water. 100 μl of 200 nM L-Tryptophan-(indole-d5) in cold 100% methanol are added followed by a 10 minutes centrifugation at 4,000 rpm at 4° C. An additional 75 μL of deionized water are then added and followed by a 10 minutes centrifugation at 4,000 rpm at 4° C. The product of the reaction N′-Formylkynurenine (NFK) is quantified by LCMS and normalized to the L-Tryptophan-(indole-d5) signal. Samples with 0.6% DMSO (0% effect) and a TDO/IDO inhibitor (100% effect) are used as control samples to set the parameters for the non-linear regression necessary for the determination of the half-maximal inhibitory concentration (IC50) for each compound. For each compound concentration the percentage of activity compared to 0% and 100% effect is calculated as average ±STDEV (each concentration measured in duplicate). IC50 values and curves are generated with XLfit software (IDBS) using Dose-Response One Site model 203 (four parameter logistic curve model). When compounds are measured multiple times, mean values are given.

| SMILES | IC50 [1] [nM] | IC50 [2] [nM] |
| --- | --- | --- |
| OC(c1c(C2CC2)sc2cncn12)C1CCCCC1 (racemic) [Example 1, rac-Cyclohexyl(2-cyclopropylimidazo[5,1-b]thiazol-3-yl)methanol] | 288 | 15.1 |
| Cc1sc2cncn2c1C(O)C1CCCCC1 (racemic) [Example 6, rac-Cyclohexyl-(2-methyl-imidazo[5,1-b]thiazol-3-yl)-methanol] | 143 | 134 |
| OC(c1c(C2CCC2)sc2cncn12)C1CCCCC1 (racemic) [Example 7, rac-(2-Cyclobutylimidazo[5,1-b]thiazol-3-yl)(cyclohexyl)methanol] | 324 | 94.2 |
| OC(CC1CCCCC1)c1c(C2CCC2)sc2cncn12 (racemic) [Example 8, rac-1-(2-Cyclobutylimidazo[5,1-b]thiazol-3-yl)-2-cyclohexylethan-1-ol] | 256 | 122 |
| OC(c1c(C2CCCC2)sc2cncn12)C1CCCCC1 (racemic) [Example 9, rac-Cyclohexyl(2-cyclopentylimidazo[5,1-b]thiazol-3-yl)methanol] | 193 | 237 |
| OC(CC1CCCCC1)c1c(C2CCCC2)sc2cncn12 (racemic) [Example 10, rac-2-Cyclohexyl-1-(2-cyclopentylimidazo[5,1-b]thiazol-3-yl)ethan-1-ol] | 277 | 384 |
| CC(C)(C)c1sc2cncn2c1C(O)C1CCCCC1 (racemic) [Example 11, rac-(2-(tert-Butyl)imidazo[5,1-b]thiazol-3-yl)(cyclohexyl)methanol] | 2050 | 895 |
| CC(C)(C)c1sc2cncn2c1C(O)CC1CCCCC1 (racemic) [Example 12, rac-1-(2-(tert-Butyl)imidazo[5,1-b]thiazol-3-yl)-2-cyclohexylethan-1-ol] | 2130 | 895 |
| OC(c1c(Cl)sc2cncn12)C1CCCCC1 (racemic) [Example 13, rac-(2-Chloroimidazo[5,1-b]thiazol-3-yl)(cyclohexyl)methanol] | 172 | 110 |
| OC(c1c(Br)sc2cncn12)C1CCCCC1 (racemic) [Example 14, rac-(2-Bromoimidazo[5,1-b]thiazol-3-yl)(cyclohexyl)methanol] | 218 | 28 |
| OC(c1cccs1)c1c(Cl)sc2cncn12 (racemic) [Example 15, rac-(2-Chloro-imidazo[5,1-b]thiazol-3-yl)-thiophen-2-yl-methanol] | 690 | 333 |
| OC(CC1CCCCC1)c1c(Cl)sc2cncn12 (racemic) [Example 16, rac-1-(2-Chloro-imidazo[5,1-b]thiazol-3-yl)-2-cyclohexyl-ethanol] | 1210 | 159 |
| OC(c1c(Cl)sc2cncn12)C1CCCCCC1 (racemic) [Example 17, rac-(2-Chloro-imidazo[5,1-b]thiazol-3-yl)-cycloheptyl-methanol] | 301 | 170 |
| OC(c1c(Cl)sc2cncn12)C1CC1 (racemic) [Example 19, rac-(2-Chloro-imidazo[5,1-b]thiazol-3-yl)-cyclopropyl-methanol] | 2660 | 1040 |
| OC(CC1CC(F)(F)C1)c1c(C2CC2)sc2cncn12 (racemic) [Example 21, rac-1-(2-Cyclopropyl-imidazo[5,1-b]thiazol-3-yl)-2-(3,3-difluoro-cyclobutyl)-ethanol] | 470 | 113 |
| OC(CC12CCC(CC1)C2)c1c(C2CC2)sc2cncn12 (racemic) [Example 22, rac-2-Bicyclo[2.2.1]hept-1-yl-1-(2-cyclopropyl-imidazo[5,1-b]thiazol-3-yl)-ethanol] | 177 | 33.7 |
| CC1(CC(O)c2c(C3CC3)sc3cncn23)CCCCC1 (racemic) [Example 23, rac-1-(2-Cyclopropyl-imidazo[5,1-b]thiazol-3-yl)-2-(1-methyl-cyclohexyl)-ethanol] | 204 | 40.5 |
| OC(CC1CCCC1)c1c(C2CC2)sc2cncn12 (racemic) [Example 24, rac-2-Cyclopentyl-1-(2-cyclopropyl-imidazo[5,1-b]thiazol-3-yl)-ethanol] | 394 | 25.6 |
| CC1(C)CCC(CC(O)c2c(C3CC3)sc3cncn23)CC1 (racemic) [Example 25, rac-1-(2-Cyclopropyl-imidazo[5,1-b]thiazol-3-yl)-2-(4,4-dimethyl-cyclohexyl)-ethanol] | 775 | 75.2 |
| CC1(C)CCC(C(O)c2c(C3CC3)sc3cncn23)CC1 (racemic) [Example 26, rac-(2-Cyclopropyl-imidazo[5,1-b]thiazol-3-yl)-(4,4-dimethyl-cyclohexyl)-methanol] | 387 | 25.2 |
| OC(CC1CCCCCC1)c1c(C2CC2)sc2cncn12 (racemic) [Example 28, rac-2-Cycloheptyl-1-(2-cyclopropyl-imidazo[5,1-b]thiazol-3-yl)-ethanol] | 470 | 24.3 |
| OC(c1cccs1)c1c(Br)sc2cncn12 (racemic) [Example 32, rac-(2-Bromo-imidazo[5,1-b]thiazol-3-yl)-thiophen-2-yl-methanol] | 643 | 63.4 |
| OC(CC1CCCCC1)c1c(Br)sc2cncn12 (racemic) [Example 33, rac-1-(2-Bromo-imidazo[5,1-b]thiazol-3-yl)-2-cyclohexyl-ethanol] | 1410 | 55.7 |
| CC1(C)CC(C(O)c2c(C3CC3)sc3cncn23)C1 (racemic) [Example 36, rac-(2-Cyclopropyl-imidazo[5,1-b]thiazol-3-yl)-(3,3-dimethyl-cyclobutyl)-methanol] | 269 | 5.38 |
| OC(CC1CCC(c2ccccc2)CC1)c1c(C2CC2)sc2cncn12 (racemic) [Example 37, rac-1-(2-Cyclopropyl-imidazo[5,1-b]thiazol-3-yl)-2-(4-phenyl-cyclohexyl)-ethanol] | 2460 | 353 |
| CC1(CC(O)c2c(C3CC3)sc3cncn23)CCC1 (racemic) [Example 39, rac-1-(2-Cyclopropyl-imidazo[5,1-b]thiazol-3-yl)-2-(1-methyl-cyclobutyl)-ethanol] | 300 | 41.7 |
| OC(CC1CCC1)c1c(C2CC2)sc2cncn12 (racemic) [Example 40, rac-2-Cyclobutyl-1-(2-cyclopropyl-imidazo[5,1-b]thiazol-3-yl)-ethanol] | 697 | 44.9 |
| OC(CC1CCC(C(F)(F)F)CC1)c1c(C2CC2)sc2cncn12 (racemic) [Example 42, rac-1-(2-Cyclopropyl-imidazo[5,1-b]thiazol-3-yl)-2-(4-trifluoromethyl-cyclohexyl)-ethanol] | 520 | 92.2 |
| Cc1cscc1-c1sc2cncn2c1C(O)C1CCCCC1 (racemic) [Example 128, rac-Cyclohexyl-[2-(4-methyl-thiophen-3-yl)-imidazo[5,1-b]thiazol-3-yl]-methanol] | 420 | – |
